In paper PMC2957182 (Molecular and cellular endocrinology, 2010):

What was measured:
ovaries = details: bovine insulin; ref Riehle and Brown, 1999; cited from earlier work
Akt = details: HNMPA-(AM3) 500 μM, ILP3 10 pmol or ILP4 20 pmol, 2 h, immunoblot

Row | Molecule | Ecdysteroid production by ovaries (ovaries) | Akt phosphorylation in ovaries with ILPs plus HNMPA-(AM3) (Akt)
1 | bovine insulin: bovine insulin | stimulates ecdysteroid production | 
2 | CC(=O)OCOC(c1ccc2ccccc2c1)P(=O)(OCOC(C)=O)OCOC(C)=O (centres unmarked) [HNMPA-(AM3)] |  | no change in phosphorylation
